The test system of assay [1] is CD15. The experiment in a line: Ex vivo flow cytometry priming assay, CD15 surface marker expression on AML patient samples. It counts as cell-based, human. Conditions: FIG. 3, three-day incubation. On the technique in general: In flow cytometry, cells or beads pass a laser one at a time.
The test system of assay [2] is PD-L1. Briefly: Ex vivo flow cytometry priming-tuning assay, PD-L1 expression on AML patient samples. It counts as cell-based, human. As to conditions: FIG. 3, three-day incubation.
Assay [3] has as its system CD38. Briefly: 72-hour ex vivo assay, CD38 upregulation in MDS and AML cancer patient samples. It counts as cell-based, human. As to conditions: subset of MDS and AML cancer patient samples. The source says:
(§1) The ex vivo detection of CD38 upregulation using the 72-hour ex vivo assay was clinically validated by trial sites, which compared CD38 expression on leukemic blasts before enrollment and at the beginning of cycle two on SY-1425.

Assay [4] relates to CD38. Briefly: Clinical validation by trial sites, CD38 expression on leukemic blasts of patients on drug. As to conditions: before enrollment versus beginning of cycle two. It counts as in vivo, human.
Text: as §1

In assay [5] the test system is CD126. Briefly: Ex vivo flow cytometry priming assay, CD126 surface marker expression on AML patient samples. Conditions: AML Patient 3. It is filed as cell-based, human. The procedure: (§2) 12 primary AML patient samples were assayed for priming response using a High-Throughput Phenotypic Screening Platform. Samples were treated with 70 priming compounds (either FDA approved compounds or compounds in clinical development). […] This process was repeated on bone marrow aspirate and peripheral blood from 3 healthy donors.

The subject of assay [6] is CD24. Briefly: Ex vivo flow cytometry priming assay, CD24 surface marker expression on AML patient samples. It counts as cell-based, human. As to conditions: AML Patient 3. The procedure: as §2

From US20200046737A1, “METHODS FOR TREATING CANCER, AND COMPOSITIONS THEREFOR” (Notable Labs, Inc., priority 2018, published 2020) come the findings set out here.

As to `Cc1c(-c2ccc(-c3ccccc3F)cc2)nc2ccc(F)cc2c1C(=O)O` [Brequinar Sodium], the CD15 expression result in assay [1] was “increase”. Besides, the PD-L1 expression result in assay [2] is recorded as “increase”.
Take `CC1(C)CCC(C)(C)c2cc(NC(=O)c3ccc(C(=O)O)cc3)ccc21` [SY-1425]: in assay [3], the “CD38 upregulation after exposure” value is “upregulation”. The “CD38 expression on leukemic blasts” value in assay [4] is listed as “upregulated”.
Turning to `CC1=C(/C=C/C(C)=C/C=C/C(C)=C/C(=O)O)C(C)(C)CCC1` [Tretinoin], the “expression of CD126” value in assay [5] is given as “little effect”. In addition, the “expression of CD24” value in assay [6] is listed as “little effect”.
